In ChEMBL document CHEMBL4340512, “Discovery of novel triazolo[4,3-b]pyridazin-3-yl-quinoline derivatives as PIM inhibitors” (Eur J Med Chem, 2019):

How the values were obtained:
[1] = tested on: A-375; assay: Antiproliferative activity against human A375 cells incubated for 72 hrs by CellTiter-Glo luminescence assay; format: functional; details: A-375, 72 h
[2] = target: Voltage-gated inwardly rectifying potassium channel KCNH2 (Homo sapiens, UniProt Q12809)
[3] = tested on: DU-145; assay: Antiproliferative activity against human DU145 assessed as combination index at 20 uM incubated for 72 hrs in presence of GI50 dose of Lapatinib by CellTiter-Glo luminescence assay; format: functional
[4] = target: T1, Receptor-type tyrosine-protein kinase FLT3 (Homo sapiens, UniProt P36888); assay: Inhibition of human FLT3 using EAIYAAPFAKKK as substrate incubated for 60 mins by fluorescence based assay
T1 sequence (P36888 whole entry): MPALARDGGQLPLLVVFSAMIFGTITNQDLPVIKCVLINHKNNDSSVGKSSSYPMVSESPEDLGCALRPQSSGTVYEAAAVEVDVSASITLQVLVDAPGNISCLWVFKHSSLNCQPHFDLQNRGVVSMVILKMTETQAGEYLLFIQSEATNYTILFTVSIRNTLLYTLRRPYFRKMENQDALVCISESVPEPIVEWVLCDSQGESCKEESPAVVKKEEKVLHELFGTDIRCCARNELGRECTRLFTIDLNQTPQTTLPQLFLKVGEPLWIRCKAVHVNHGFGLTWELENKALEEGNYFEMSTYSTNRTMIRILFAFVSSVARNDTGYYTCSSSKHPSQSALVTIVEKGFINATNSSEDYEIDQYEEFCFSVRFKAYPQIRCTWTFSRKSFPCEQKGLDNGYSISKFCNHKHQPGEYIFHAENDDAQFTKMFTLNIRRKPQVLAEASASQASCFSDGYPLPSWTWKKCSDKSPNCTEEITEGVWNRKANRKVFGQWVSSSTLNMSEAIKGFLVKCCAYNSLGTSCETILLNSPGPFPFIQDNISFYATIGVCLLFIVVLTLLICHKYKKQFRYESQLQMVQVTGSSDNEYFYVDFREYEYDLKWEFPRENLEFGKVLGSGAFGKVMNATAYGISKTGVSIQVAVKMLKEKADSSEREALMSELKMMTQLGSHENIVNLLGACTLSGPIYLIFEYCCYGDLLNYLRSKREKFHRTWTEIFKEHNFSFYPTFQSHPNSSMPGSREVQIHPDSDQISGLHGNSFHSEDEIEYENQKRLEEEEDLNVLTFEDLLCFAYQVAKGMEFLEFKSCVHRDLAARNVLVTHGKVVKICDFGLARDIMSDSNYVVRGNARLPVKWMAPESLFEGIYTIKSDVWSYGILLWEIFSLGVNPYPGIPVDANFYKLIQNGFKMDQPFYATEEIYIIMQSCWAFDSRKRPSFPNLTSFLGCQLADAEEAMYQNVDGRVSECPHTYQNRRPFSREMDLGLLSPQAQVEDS

[5] = target: T2, Serine/threonine-protein kinase pim-1 (Homo sapiens, UniProt P11309); assay: Inhibition of His tagged human recombinant PIM1 using PIM tide (ARKRRRHPSGPPTA) as substrate incubated for 1 hr by fluorescence based assay
[6] = tested on: SK-MEL19; assay: Antiproliferative activity against human SK-MEL-19 assessed as combination index at 5 uM incubated for 72 hrs in presence of GI50 dose of GDC-0941 by CellTiter-Glo luminescence assay; format: functional
[7] = tested on: SK-OV-3; assay: Antiproliferative activity against human SKOV3 cells incubated for 72 hrs by CellTiter-Glo luminescence assay; format: functional; details: SK-OV-3, 72 h
[8] = tested on: T47D; assay: Antiproliferative activity against human T47D assessed as combination index at 20 uM incubated for 72 hrs in presence of GI50 dose of GDC-0941 by CellTiter-Glo luminescence assay; format: functional
[9] = tested on: HCT-116; assay: Antiproliferative activity against human HCT116 cells incubated for 72 hrs by CellTiter-Glo luminescence assay; format: functional; details: HCT-116, 72 h
[10] = tested on: SK-MEL19; assay: Antiproliferative activity against human SK-MEL-19 assessed as combination index at 5 uM incubated for 72 hrs in presence of GI50 dose of Lapatinib by CellTiter-Glo luminescence assay; format: functional
[11] = tested on: A498; assay: Antiproliferative activity against human A498 cells incubated for 72 hrs by CellTiter-Glo luminescence assay; format: functional; details: A498, 72 h
[12] = tested on: JeKo-1; assay: Antiproliferative activity against human JeKo1 assessed as combination index at 10 uM incubated for 72 hrs in presence of GI50 dose of Lapatinib by CellTiter-Glo luminescence assay; format: functional
[13] = Clearance in iv dosed Balb/c mouse administered as single dose measured after 0.08 to 4 hrs by HPLC/MS analysis relative to hepatic blood flow; format: ADME, organism-based; details: in vivo
[14] = tested on: T84; assay: Antiproliferative activity against human T84 cells incubated for 72 hrs by CellTiter-Glo luminescence assay; format: functional; details: T84, 72 h
[15] = Antiproliferative activity against human TC71 cells incubated for 72 hrs by CellTiter-Glo luminescence assay; format: functional; details: TC-71, 72 h
[16] = tested on: BXPC-3; assay: Antiproliferative activity against human BxPC3 cells incubated for 72 hrs by CellTiter-Glo luminescence assay; format: functional; details: BXPC-3, 72 h
[17] = tested on: SW-620; assay: Antiproliferative activity against human SW620 cells incubated for 72 hrs by CellTiter-Glo luminescence assay; format: functional; details: SW-620, 72 h
[18] = tested on: U-87 MG; assay: Antiproliferative activity against human U87MG cells incubated for 72 hrs by CellTiter-Glo luminescence assay; format: functional, U-87MG ATCC
[19] = tested on: HCT-116; assay: Antiproliferative activity against human HCT116 assessed as combination index at 20 uM incubated for 72 hrs in presence of GI50 dose of Lapatinib by CellTiter-Glo luminescence assay; format: functional
[20] = tested on: MDA-MB-231; assay: Antiproliferative activity against human MDA-MB-231 assessed as combination index at 20 uM incubated for 72 hrs in presence of GI50 dose of PD-0325901 by CellTiter-Glo luminescence assay; format: functional
[21] = tested on: MDA-MB-231; assay: Antiproliferative activity against human MDA-MB-231 assessed as combination index at 20 uM incubated for 72 hrs in presence of GI50 dose of GDC-0941 by CellTiter-Glo luminescence assay; format: functional
[22] = tested on: PC-3; assay: Antiproliferative activity against human PC3 assessed as combination index at 20 uM incubated for 72 hrs in presence of GI50 dose of Vorinostat by CellTiter-Glo luminescence assay; format: functional
[23] = target: T2, Serine/threonine-protein kinase pim-1; assay: Inhibition of PIM1 in human NCI-H1299 cells assessed as reduction in BAD phosphorylation at Ser-112 residue incubated for 4 hrs by ELISA; format: cell-based; details: read-out: EC50
[24] = target: Serine/threonine-protein kinase pim-2 (Homo sapiens, UniProt Q9P1W9); assay: Inhibition of His tagged human recombinant PIM2 using PIM tide (ARKRRRHPSGPPTA) as substrate incubated for 1 hr by fluorescence based assay
[25] = tested on: LNCaP; assay: Antiproliferative activity against human LNCAP cells incubated for 72 hrs by CellTiter-Glo luminescence assay; format: functional
[26] = tested on: NAMALVA; assay: Antiproliferative activity against human NAMALWA cells incubated for 72 hrs by CellTiter-Glo luminescence assay; format: functional

COCCN1CCOc2c1cnn1c(-c3ccc4cccc(NCC5CCNCC5)c4n3)nnc21
GI50 [1]: 21.8 µM | IC50 [2]: > 20 µM | CI [3]: 0.0001 | IC50 [4]: > 10 µM | IC50 [5]: 0.007 µM | CI [6]: 0.308 | GI50 [7]: 23.5 µM | CI [8]: 0.598 | GI50 [9]: 21.2 µM | CI [10]: 0.508 | GI50 [11]: 8.98 µM | CI [12]: 0.295 | CLH [13]: < 30% | GI50 [14]: 23.2 µM | GI50 [15]: 14.9 µM | GI50 [16]: 9.21 µM | GI50 [17]: 8.73 µM | GI50 [18]: 21.7 µM | CI [19]: 0.001 | CI [20]: 0.32 | CI [21]: 0.0001 | CI [22]: 0.346 | EC50 [23]: 0.262 µM | IC50 [24]: 5.53 µM | GI50 [25]: 18.6 µM | GI50 [26]: 9.68 µM
